Consider one compound from ChEMBL document CHEMBL4831477, “Structure-Enabled Discovery of Novel Macrocyclic Inhibitors Targeting Glutaminase 1 Allosteric Binding Site” (J Med Chem, 2021).

Data set [1] relates to HCT-116. Put plainly: Induction of ROS generation in human HCT-116 cells incubated for 6 hrs by DCFH-DA dye based flow cytometric analysis. It counts as functional, cell-based. To be noted: dose 50-500 nM. For orientation: A flow cytometer gives signals particle by particle.
Data set [2] can be described thus: Intrinsic aqueous solubility of compound at pH 7.4 by LC-MS based shake-flask method. It counts as physicochemical. The conditions noted are these: read-out: Intrinsic_solubility.
The nature of data set [3]: Metabolic stability in human plasma assessed as compound remaining after 2 hrs by LC-MS/MS analysis. It counts as ADME, cell-free. The conditions noted are these: read-out: Stability.
The nature of data set [4]: Metabolic stability in mouse liver microsomes assessed as half life at 10 uM preincubated for 5 mins followed by NADPH addition by LC-MS/MS analysis. It counts as ADME, Microsome. A general note: Liver microsomes are vesicles of endoplasmic reticulum, rich in cytochrome P450 enzymes.
A short description of data set [5]: Half life in Sprague-Dawley rat at 5 mg/kg, iv measured upto 72 hrs by LC-MS/MS analysis. It counts as ADME, organism-based. To be noted: in vivo.
Data set [6] can be described thus: Cmax in Sprague-Dawley rat at 200 mg/kg, po measured upto 72 hrs by LC-MS/MS analysis. Further details: route oral, dose 200 mg/kg, time <=72. It counts as ADME, organism-based. To be noted: in vivo.
A short description of data set [7]: AUC(0 to t) in Sprague-Dawley rat at 200 mg/kg, po measured upto 72 hrs by LC-MS/MS analysis. Also on record: route oral, dose 200 mg/kg, time <=72. The conditions noted are these: in vivo. It counts as ADME, organism-based.
A short description of data set [8]: Clearance in Sprague-Dawley rat at 5 mg/kg, iv measured upto 72 hrs by LC-MS/MS analysis. To be noted: Sprague-Dawley, in vivo. It counts as ADME, organism-based.
The nature of data set [9]: Clearance in Sprague-Dawley rat at 200 mg/kg, po measured upto 72 hrs by LC-MS/MS analysis. It counts as ADME, organism-based. To be noted: in vivo, 200 mg/kg, 72 h.
Data set [10] is described as follows: Apparent volume of distribution in Sprague-Dawley rat at 5 mg/kg, iv measured upto 72 hrs by LC-MS/MS analysis. It counts as ADME, organism-based. The conditions noted are these: in vivo, read-out: Vz.
Data set [11] has as its system HCT-116. Put plainly: Antineoplastic activity against human HCT-116 cells xenografted in po dosed BALB/c nude mouse administered twice daily measured after 28 days. It counts as functional, organism-based. To be noted: dose 200.0 mg/kg, time 28.0 day.
Data set [12] can be described thus: Toxicity in BALB/c nude mouse xenografted with human HCT-116 cells assessed as tolerability at 200 mg/kg, po administered twice daily measured after 28 days. The conditions noted are these: in vivo, 672 h, time 28 day. It counts as organism-based.
A short description of data set [13]: Cmax in BALB/c nude mouse plasma xenografted with human HCT-116 cells at 200 mg/kg, po administered twice daily for 28 days. It counts as ADME, organism-based. Also on record: route oral, time 28 day, dose 200 mg/kg. (In xenograft studies the graft and the host belong to different species.)
Data set [14] is described as follows: Acute toxicity in BALB/c nude mouse assessed as spleen damage at 200 mg/kg, po administered twice daily for 4 weeks by H and E staining based optical microscopic analysis. It counts as organism-based. The conditions noted are these: in vivo, 672 h.
Data set [15] has as its target T1, Glutaminase kidney isoform, mitochondrial (Mus musculus) (UniProt D3Z7P3).
T1 sequence (whole entry): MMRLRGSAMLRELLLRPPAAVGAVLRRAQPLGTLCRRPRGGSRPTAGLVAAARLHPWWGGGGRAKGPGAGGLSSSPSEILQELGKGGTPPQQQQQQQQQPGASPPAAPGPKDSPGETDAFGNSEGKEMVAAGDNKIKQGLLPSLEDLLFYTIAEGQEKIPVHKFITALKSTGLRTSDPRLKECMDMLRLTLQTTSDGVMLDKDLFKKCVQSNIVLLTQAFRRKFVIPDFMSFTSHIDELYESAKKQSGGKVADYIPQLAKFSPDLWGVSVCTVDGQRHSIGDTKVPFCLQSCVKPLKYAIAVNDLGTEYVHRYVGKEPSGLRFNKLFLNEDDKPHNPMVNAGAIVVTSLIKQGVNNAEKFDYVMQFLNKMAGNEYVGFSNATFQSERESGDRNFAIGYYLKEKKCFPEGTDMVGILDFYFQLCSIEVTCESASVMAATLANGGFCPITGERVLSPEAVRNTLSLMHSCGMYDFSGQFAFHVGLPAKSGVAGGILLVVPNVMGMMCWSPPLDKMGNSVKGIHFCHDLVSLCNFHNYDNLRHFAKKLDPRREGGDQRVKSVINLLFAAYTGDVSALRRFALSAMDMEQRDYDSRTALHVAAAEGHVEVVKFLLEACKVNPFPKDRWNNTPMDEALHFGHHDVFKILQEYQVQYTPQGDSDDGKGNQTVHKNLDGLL
Put plainly: In vivo inhibition of GLS1 in BALB/c mouse xenografted with human HCT-116 cells assessed as increase in glutamine level at 200 mg/kg, po. It counts as functional, organism-based.

Data set [16] deals with T1, Glutaminase kidney isoform, mitochondrial (Mus musculus). Put plainly: In vivo inhibition of GLS1 in BALB/c mouse xenografted with human HCT-116 cells assessed as reduction in malate level at 200 mg/kg, po. It counts as functional, organism-based.
Data set [17] has the same target. The experiment in a line: In vivo inhibition of GLS1 in BALB/c mouse xenografted with human HCT-116 cells assessed as reduction in aspartate level at 200 mg/kg, po. It counts as functional, organism-based.
For data set [18] the target is unchanged. Put plainly: In vivo inhibition of GLS1 in BALB/c mouse xenografted with human HCT-116 cells assessed as reduction in fumarate level at 200 mg/kg, po. It counts as functional, organism-based.

Converted amounts (≈) assume the structure as drawn. The source made the active and inactive calls.

As usually defined, the half-life is the time needed for the level to fall by half in the phase considered. What is called Cmax is the maximum level reached in the sampled fluid or tissue. By AUC(0-t) is commonly meant the area under the concentration-time curve up to a stated or last time point. A higher AUC(0-t) goes with more exposure. Broadly, the clearance is a measure of how efficiently the substance is removed, as volume per time. Higher therefore signals efficient removal. Regarding `O=C1Cc2cccc(c2)OCC/C=C/CCOc2cccc(c2)CC(=O)Nc2nnc(s2)CCCCc2ccc(nn2)N1`, the Activity entry in the data set with HCT-116 [1] is “Dose-Dependent Effect”; in the data set with HCT-116 [11] it was “Dose-Dependent Effect”; in data set [12], “Non-Toxic”; in data set [14] it was “Non-Toxic”. The solubility thermodynamic in [2] worked out at 1.73 µg/mL (≈ 2.89 µM). The remaining at 2 h in data set [3] stood at 92%. For the same compound, the half-life at 10 µM in data set [4] came out at 1.7 h. The same compound had a half-life in data set [5] of 6.3 h. Also, the Cmax in data set [6] was 1030 ng/mL; in data set [13], 1630 nM. The AUC(0-t) at 72 h in data set [7] turned out to be 5920 ng·h/mL. Moreover, the clearance in [8] is 53.3 mL/min/kg. In addition, the CL in data set [9] turned out to be 61.7 mL/min/kg. The Vd in [10] is 19.7 L/kg. Besides, the inhibition entry in data set [15], in data set [16], in [17] and in [18] was “Active” in each case.
